This is an account of results in patent US10604535B2, “Compounds, compositions and methods” (Denali Therapeutics Inc., priority 2016, dated 2020).

Read-outs that look alike come from different tables or passages of the source.

The conditions of data set [1]: male, Beagle, in vivo, iv.
Description: (§4) The protein binding in plasma was determined using a Rapid Equilibrium Dialysis Device (Thermo Scientific RED Device) or 96-well dialyzer apparatus (HTDialysis LLC). […] If required, plasma samples were pre-incubated (2 hours at 37° C.) with diisopropyl fluorophosphate (DFP) at the final concentration of 100 μM to prevent compound degradation due to amide hydrolysis. Appropriate volumes of spiked samples along with blank phosphate buffer were added to either device and incubated at 37° C. for a total of 5 hours with agitation at 500 rpm. Following incubation, an equal aliquot of dialysed matrix (plasma or buffer) is added to an equal volume of the opposite blank matrix such that the volume of buffer to plasma are equal. Mixed matrix samples were extracted by protein precipitation using acetonitrile containing the appropriate IS. Samples were then centrifuged for 10 min at 2800 rpm. Supernatants were collected and diluted and then injected on to an HPLC-MS/MS or UPLC-MS/MS system. Samples were analyzed by monitoring the appropriate parent/daughter ion transitions for the test and control compounds. The peak area ratios were used to measure test item concentrations. The fraction unbound (Afu) was determined as the ratio of the peak area ratio in buffer divided by the peak area ratio in plasma.
The PK properties of test articles were determined in male Sprague-Dawley Crl:CD(SD) rats, male Beagle dogs and male cynomolgus monkeys. […]
Following dose administration, 8-9 serial blood samples were collected over 24 hours. […] The processed supernatant was analyzed using UPLC or LC-MS/MS using specific parent/daughter ion pairs for the test article and IS. Plasma concentrations were determined using a calibration curve prepared using known concentrations of analyte. Pharmacokinetic parameters utilizing measured concentrations were calculated using Phoenix WinNonlin. The unbound plasma clearance was calculated as the ratio of the total body clearance divided by the fraction unbound in plasma.
The subject of data set [2] is human cryopreserved hepatocytes. Description: Metabolic stability (hepatocytes). Conditions: for Human hepatocyte CLhep Avg: human cryopreserved hepatocytes; for clearance as % of liver blood flow: corresponding to human CLhep.
Description: (§5) The metabolic stability of compounds was evaluated in human cryopreserved hepatocytes (BioreclamationlVT, NY, USA) in duplicate. Test articles (or controls) were added to a 24-well incubation plate (Becton Dickinson Labware, USA) containing 0.5×10^6 hepatocytes/mL in suspension. The plate was held at 37° C. and agitated with constant orbital shaking (orbital speed at 350 rpm). At each time point (0, 5, 10, 15, 20, 30, 45, 60, 90, 120, 150 and 180 min) a Tecan Evo robot aspirated 50 μL of the incubation mixture and 100 μL of acetonitrile containing internal standard to quench the reaction. […] Samples were centrifuged (3000 rpm for 10 minutes) and the plate sealed prior to injection onto an LC-MS/MS system.
(§6) The appropriate parent/daughter ions were monitored for the test article and IS with the LC-MS/MS system. The intrinsic clearance (Clint; expressed μL/min/million cells) was determined from the first order elimination constant (k, min^−1) of test article decay and the volume of the incubation. […] The intrinsic organ CL was then converted to the hepatic clearance (CLhep) using the well-stirred model as shown below, where Qh is human hepatic blood flow.
(§7) Hepatic clearance is expressed as mL/min/kg. The hepatic clearance relates to the flow of blood through the liver that is completely cleared of the compound.
The conditions of data set [3]: male, Sprague-Dawley Crl:CD(SD), in vivo, iv.
Description: as §4
(§8) The PK properties of test articles were determined in male Sprague-Dawley Crl:CD(SD) rats, male Beagle dogs and male cynomolgus monkeys. Studies were conducted to the highest standards of animal welfare in accordance with national legislation and under approval of the internal animal care and use committees.
(§9) Compounds were administered by IV bolus to animals following an overnight fast. […] The formulations were administered at dose volumes ranging from 0.5-2 mL/kg. The IV dose ranged from 0.5-1 mg/kg.
(§10) Following dose administration, 8-9 serial blood samples were collected over 24 hours. Samples were mixed with anticoagulant and placed on wet ice prior to processing. Plasma was harvested following centrifugation, extracted using protein precipitation with acetonitrile containing IS. The processed supernatant was analyzed using UPLC or LC-MS/MS using specific parent/daughter ion pairs for the test article and IS. Plasma concentrations were determined using a calibration curve prepared using known concentrations of analyte. Pharmacokinetic parameters utilizing measured concentrations were calculated using Phoenix WinNonlin. The unbound plasma clearance was calculated as the ratio of the total body clearance divided by the fraction unbound in plasma.
For data set [4] the following is noted: male, cynomolgus monkey, in vivo, iv.
Description: as §4, §8, §9, §10
Another data set addresses GST-hRIPK1 (8-327) (Homo sapiens (Human), UniProt Q13546). Description: Fluorescent Polarization Binding (FP Binding) assay.
The subject of a further data set is P-gp (MDR1). Description: MDCKII-MDR1 permeability, efflux ratio. It counts as in vitro ADME. The following applies: dog, MDCK-MDR1, pH 7.4, MDCKII-MDR1, 3 μM, read-out: ER MDR1. How it is done: (§1) The blood brain barrier (BBB) separates circulating blood from the extracellular fluid of the central nervous system (CNS). The passive membrane permeability (Papp) and the P-gp (P-glycoprotein) substrate efflux potential were determined using the MDCKII-MDR1 cell line as an in vitro model of the effective permeability of a compound through the BBB. A bidirectional assay (Apical to Basolateral (A→B) and Basolateral to Apical (B→A)), in the absence and in the presence of GF120918 (a P-gp inhibitor) was conducted using pre-plated MDCKII-MDR1 cells (Corning HTS Transwell-96) obtained from SOLVO Biotechnology. The assay was run at 3 μM for 90 min (minutes) in triplicate using a HBSS+12.5 mM HEPES pH 7.4 transport buffer. Following incubation of samples from donor and receiver, wells were removed and measured by LC-MS/MS. Samples were extracted by protein precipitation with acetonitrile containing an appropriate internal standard (IS) having a known mass and molecular weight. The precipitate was centrifuged for 10 min at 3000 rpm (revolutions per minute). The supernatants were then collected, diluted if necessary, and injected on to the LC-MS/MS system. […] Papp (apparent permeability expressed in nm/sec [nanometer/second]) values were calculated according to the following equation: […]
(§2) Where dQ/dt is the permeability rate, C0 is the initial concentration in the donor solution (expressed as IS ratio), A and B are the surface areas of the filter (the surface area of the cell monolayer).
(§3) Monolayer efflux ratios (ER) were derived using the following equation: […]

The subject of data set [5] is human cryopreserved hepatocytes.
Description: as §5, §6, §7
Data set [6] concerns FADD-deficient Jurkat cells. Description: Cellular necroptosis assay (human TNFα-induced necrosis, CellTiter-Glo). It counts as cell-based. The following applies: Homo sapiens, Jurkat, 48 h, TNFα 10 ng/mL, read-out: Cell IC50.
The subject of another data set is TNF/zVAD. The following applies: 30 mg/kg, from Table 2 of WO 2014/125444; cited from earlier work.
For another data set, the system named is MDCKII-MDR1 cell line. Description: MDCKII-MDR1 permeability, efflux ratio. It counts as in vitro ADME. Conditions: MDCKII-MDR1, 3 μM, 90 min. How it is done: as §1, §2, §3

GST-hRIPK1 (8-327), sequence (Q13546 8-327): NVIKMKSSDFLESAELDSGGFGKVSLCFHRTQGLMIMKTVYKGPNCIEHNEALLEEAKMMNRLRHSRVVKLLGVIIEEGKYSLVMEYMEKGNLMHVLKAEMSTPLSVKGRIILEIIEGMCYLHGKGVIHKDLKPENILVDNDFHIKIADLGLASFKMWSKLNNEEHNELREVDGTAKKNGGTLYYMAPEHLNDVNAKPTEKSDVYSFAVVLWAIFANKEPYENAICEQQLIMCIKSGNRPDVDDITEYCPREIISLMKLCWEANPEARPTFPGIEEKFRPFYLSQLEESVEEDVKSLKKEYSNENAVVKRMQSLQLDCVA

For `CN1C(=O)[C@@H](NC(=O)c2nnc(C3(c4ccccc4)CC3)o2)COc2cccnc21` [Example 66, (S)—N-(5-methyl-4-oxo-2,3,4,5-tetrahydropyrido[3,2-b][1,4]oxazepin-3-yl)-5-(1-phenylcyclopropyl)-1,3,4-oxadiazole-2-carboxamide], the “Dog unbound CL” value in data set [1] was determined as 36 mL/min/kg. Besides, in data set [2], the “Human hepatocyte CLhep Avg” value is reported as 6.3 mL/min/kg.
In the case of `CN1C(=O)[C@@H](NC(=O)c2nnc(Cc3ccccc3)[nH]2)COc2cccnc21` [Example 42, (S)-5-benzyl-N-(5-methyl-4-oxo-2,3,4,5-tetrahydropyrido[3,2-b][1,4]oxazepin-3-yl)-4H-1,2,4-triazole-3-carboxamide], the “Rat unbound CL” value in data set [3] is given as 22 mL/min/kg. Moreover, the “Dog unbound CL” value in data set [1] turned out to be 64 mL/min/kg. In addition, the “Cyno unbound CL” value in data set [4] is on record as 42 mL/min/kg. In data set [2], the “clearance as % of liver blood flow” value is listed as “less than 4%” and the “Human hepatocyte CLhep Avg” value came out at 0.8 mL/min/kg.
By IC50 is commonly meant the concentration needed to halve the response being measured. `CN1C(=O)[C@@H](NC(=O)c2nnc(Cc3ccccc3)[nH]2)[C@H]2C[C@H]2c2nccnc21` [Example 119B, 5-benzyl-N-((7S,7aS,8aR)-5-methyl-6-oxo-5,6,7,7a,8,8a-hexahydrocyclopropa[d]pyrazino[2,3-b]azepin-7-yl)-4H-1,2,4-triazole-3-carboxamide] returned an IC50 at GST-hRIPK1 (8-327) of 0.1 to 1000 nM. Besides, the efflux ratio at 90 min, 3 μM in the data set with P-gp (MDR1) is 18. Besides, in data set [3], the “Rat unbound CL” value was found to be 20 mL/min/kg. Besides, in data set [4], the “Cyno unbound CL” value is 26 mL/min/kg. In addition, the “Human hepatocyte CLhep Avg” value in data set [2] stood at 0 mL/min/kg.
As to `CN1C(=O)[C@@H](NC(=O)c2cc(C3(c4ccccc4)CC3)on2)COc2ccccc21` [Example 8, (S)—N-(5-methyl-4-oxo-2,3,4,5-tetrahydrobenzo[b][1,4]oxazepin-3-yl)-5-(1-phenylcyclopropyl)isoxazole-3-carboxamide], the IC50 on GST-hRIPK1 (8-327) was in the range of 0.1 to 1000 nM. Also, in data set [5], the “Human hepatocyte CLhep Avg” value is given as 19 mL/min/kg. Moreover, the “Rat unbound CL” value in [3] stood at 3700 mL/min/kg.
For the compound `CN1C(=O)[C@@H](NC(=O)c2cc(Cc3ccccc3)on2)CC2(CC2)c2ccccc21` [Example 9, (S)-5-benzyl-N-(1-methyl-2-oxo-1,2,3,4-tetrahydrospiro[benzo[b]azepine-5,1′-cyclopropan]-3-yl)isoxazole-3-carboxamide], the IC50 on GST-hRIPK1 (8-327) was in the range of 0.1 to 1000 nM. Besides, the “Human hepatocyte CLhep Avg” value in [5] was found to be 19 mL/min/kg.
At GST-hRIPK1 (8-327), `CN1C(=O)[C@@H](NC(=O)c2nnc(Cc3ccccc3)o2)[C@H]2C[C@H]2c2nccnc21` [Example 177A, 5-benzyl-N-((7S,7aS,8aR)-5-methyl-6-oxo-5,6,7,7a,8,8a-hexahydrocyclopropa[d]pyrazino[2,3-b]azepin-7-yl)-1,3,4-oxadiazole-2-carboxamide] returned an IC50 of 0.1 to 1000 nM. For the same compound, the efflux ratio at 90 min, 3 μM in the data set with P-gp (MDR1) came to 1.4. For the same compound, in data set [3], the “Rat unbound CL” value is on record as 55 mL/min/kg. The “Cyno unbound CL” value in data set [4] is given as 58 mL/min/kg. The “Human hepatocyte CLhep Avg” value in data set [2] was 4.2 mL/min/kg.
With `CN1C(=O)[C@@H](NC(=O)c2ncn(Cc3cccc(C#N)c3)n2)COc2cccnc21` [Example 171, (S)-1-(3-cyanobenzyl)-N-(5-methyl-4-oxo-2,3,4,5-tetrahydropyrido[3,2-b][1,4]oxazepin-3-yl)-1H-1,2,4-triazole-3-carboxamide], the “Human hepatocyte CLhep Avg” value in data set [5] is reported as 5.1 mL/min/kg. Also, in [3], the “Rat unbound CL” value came to 32 mL/min/kg.
As for `[2H]C([2H])([2H])N1C(=O)[C@@H](NC(=O)c2nn(Cc3ccccc3)cc2F)[C@H]2C[C@H]2c2cc(S(C)(=O)=O)ccc21` [Example 183B, 1-benzyl-4-fluoro-N-((1aS,2S,8bR)-4-trideuteriomethyl-7-(methylsulfonyl)-3-oxo-1,1a,2,3,4,8b-hexahydrobenzo[b]cyclopropa[d]azepin-2-yl)-1H-pyrazole-3-carboxamide], the IC50 on GST-hRIPK1 (8-327) was 0.1 to 1000 nM. Besides, the efflux ratio at 90 min, 3 μM with P-gp (MDR1) was 36. In [2], the “Human hepatocyte CLhep Avg” value turned out to be 5.3 mL/min/kg.
Regarding `CN1C(=O)[C@@H](NC(=O)c2nnc(Cc3ccccc3)[nH]2)COc2ccccc21` [A, reference compound], in data set [6], the IC50 is 0.5 nM. Also, in data set [3], the “Rat unbound CL” value was found to be 77 mL/min/kg. Moreover, the “Dog unbound CL” value in [1] is 240 mL/min/kg. In the data set with TNF/zVAD, the “inhibition of temperature loss” value is reported as 93%. In addition, in data set [2], the “clearance as % of liver blood flow” value is “approximately 32%” and the “Human hepatocyte CLhep Avg” value is 6.8 mL/min/kg.
Regarding `CN1C(=O)[C@@H](NC(=O)c2nnc(Cc3ccccc3)o2)COc2ccccc21` [B, reference compound], in data set [6], the IC50 is 0.3 nM. The “ER MDR1” value in the data set with MDCKII-MDR1 cell line was 1.0. Also, the “Human hepatocyte CLhep Avg” value in data set [2] is listed as 14 mL/min/kg.
